{
  "source": "patent US20110144177A1",
  "about": "“Carbamoyl Esters That Inhibit Cholinesterase And Release Pharmacologically Active Agents” (priority 2003, published 2011)",
  "key": {"[1]": {"tested_on": "scopolamine-induced amnesia", "assay": "Scopolamine induced amnesia in multiple trial passive (inhibitory) avoidance assay", "format": "in vivo, rat", "conditions": "for Performance relative to scopolamine / Performance relative to saline: at the most effective dose, latency to enter dark chamber; for Performance relative to scopolamine: relative to impaired (scopolamine) group; for Performance relative to saline: relative to unimpaired (saline) control group; for most effective dose (the dose that increases the latency the most): i.p. immediately after training, scopolamine 0.75 mg/kg, retention 24 hours later", "from_the_text": "Inhibitory avoidance is used as a cognitive performance screen because the discrete nature of the task allows for precise pharmacological manipulation and for the ability to selectively study acquisition, consolidation, or recall or learned information.\nThe inhibitory avoidance apparatus used in these experiments consisted of a light chamber and a dark chamber, which were joined by means of a sliding guillotine door. Training involved placing a rat inside the light chamber with its head facing away from the door. Ten seconds later, the sliding door was opened, and the latency to enter the dark chamber was recorded (100 second maximum). When the rat entered the dark chamber, it received a continuous footshock (0.4 mA) through the metal grid floor until it returned to the light chamber. This sequence of events continued until the rat remained in the light chamber for a period of 100 consecutive seconds or until a maximum of 5 footshocks had been received.\nRetention testing, or the ability of the rat to remember the previous events in the inhibitory avoidance apparatus, was conducted 24 hours after the initial testing. The rat was placed into the light chamber with its head facing away from the door. Ten seconds later, the door was opened, allowing the rat access to the dark chamber. No footshock was administered during retention testing. Latency to enter the dark chamber was recorded (900 seconds maximum) and used as a measure of memory.\nTo assess the effects of the carbamoyl esters on scopolamine-induced amnesia, rats were injected with saline or scopolamine hydrochloride (0.75 mg/kg) 30 minutes prior to training on the Inhibitory Avoidance task. Immediately following the training trial, rats were injected with saline or the carbamoyl ester.\nRetention for the task in scopolamine or saline treated rats, was assessed as described above, 24 hours later. No compound (drug) was administered to the rat prior to the retention test and no shock was given during retention testing. For retention testing, the rat was placed into the light chamber. Fifteen seconds later, the door was automatically opened and latency to enter the dark compartment was measured. The latency to enter the dark chamber is the primary measure of memory on this task. Carbamoyl esters were evaluated in this protocol."}, "[2]": {"biological_target": "human recombinant acetylcholinesterase (Homo sapiens, UniProt P22303)", "sequence (P22303 32-614)": "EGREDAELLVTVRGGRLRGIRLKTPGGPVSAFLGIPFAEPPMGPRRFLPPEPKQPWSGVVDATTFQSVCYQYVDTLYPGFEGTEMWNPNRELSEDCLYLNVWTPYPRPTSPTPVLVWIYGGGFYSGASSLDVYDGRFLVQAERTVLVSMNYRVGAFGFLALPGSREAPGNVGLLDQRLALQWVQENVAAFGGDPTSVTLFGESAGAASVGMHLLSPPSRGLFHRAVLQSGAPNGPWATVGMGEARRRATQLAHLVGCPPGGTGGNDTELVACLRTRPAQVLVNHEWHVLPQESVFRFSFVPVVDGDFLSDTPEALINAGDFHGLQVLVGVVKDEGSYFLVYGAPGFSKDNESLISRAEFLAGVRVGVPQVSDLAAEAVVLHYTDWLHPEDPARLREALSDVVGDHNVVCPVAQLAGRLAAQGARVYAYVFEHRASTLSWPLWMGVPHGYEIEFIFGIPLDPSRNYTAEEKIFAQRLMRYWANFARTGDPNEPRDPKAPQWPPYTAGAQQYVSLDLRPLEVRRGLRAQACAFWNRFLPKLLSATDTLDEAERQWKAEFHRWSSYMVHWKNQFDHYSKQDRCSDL", "format": "biochemical"}, "[3]": {"tested_on": "total cholinesterase activity in the brain", "assay": "Total cholinesterase activity in brain homogenate after i.p. injection", "format": "in vivo, Male Wistar rats", "conditions": "for tolerability of the dose: i.p. dose giving a cholinergic behavioral effect with minimal side effects", "protocol": "Animals were decapitated 3 hours after injection and the brains rapidly removed. The brain tissue was diced into small pieces, placed on ice and immediately homogenized with a Polytron PT1200 (Kinematic AG) in 10 ml ice cold Tris with 0.1% Triton-X and protease inhibitors. The protease inhibitors in the extraction buffer were Antipain (10 μM), Aprotinin (5 TIU/mg protein), Bestatin ([…]), Leupeptin (10 μM) and Pepstatin (1 μM). The final dilution of the homogenate in the final assay mixture was 120-fold.\nTotal cholinesterase activity was determined by a modification of the colorimetric method of Ellmann, et al. (Biochem. Pharmacol., 7:88-95 (1961)), as described above. Hydrolysis of acetylthiocholine was monitored indirectly by measurement of the formation of the conjugate between thiocholine and DTNB. Optical density at 405 nm was recorded during five (5) minutes employing a microplate spectrophotometer (Polarstar, BMG Labtech), and plotted against time. The initial rates were calculated from the slope of the linear portion of the graph.\nCholinesterase activity was normalized for protein content of the homogenate. Relative cholinesterase activity was calculated as the ratio of normalized cholinesterase activity in a rat treated with a control compound or a carbamoyl ester over normalized cholinesterase activity in saline treated rats."}},
  "data": [
    {"smiles": "C[C@H](Cc1ccccc1)NC(=O)Oc1ccc2c(c1)[C@]1(C)CCN(C)[C@@H]1N2C", "note": "[Compound 14]", "values": [
      {"measurement": "Performance relative to scopolamine", "setting": "[1]", "result": 186, "unit": "%"},
      {"measurement": "Performance relative to saline", "setting": "[1]", "result": 51, "unit": "%"},
      {"measurement": "most effective dose (the dose that increases the latency the most)", "setting": "[1]", "result": 0.02, "unit": "mg/kg"},
      {"measurement": "fold increase in enzymatic activity compared to rivastigmine", "setting": "[2]", "result": 10, "unit": "fold"}
    ]},
    {"smiles": "C[C@H](Cc1ccccc1)NC(=O)Oc1cccc([C@H](C)N(C)C)c1", "note": "[Compound 9]", "values": [
      {"measurement": "Performance relative to scopolamine", "setting": "[1]", "result": 306, "unit": "%"},
      {"measurement": "Performance relative to saline", "setting": "[1]", "result": 83, "unit": "%"},
      {"measurement": "most effective dose (the dose that increases the latency the most)", "setting": "[1]", "result": 0.1, "unit": "mg/kg"},
      {"measurement": "ChE inhibition", "setting": "[3]; 8 mg/kg i.p., brain 3 hours after injection", "result": 41, "unit": "%"},
      {"measurement": "tolerability of the dose", "setting": "[3]", "result": "well-tolerated"}
    ]},
    {"smiles": "CC(Cc1ccccc1)NC(=O)Oc1cccc([C@H](C)N(C)C)c1", "note": "(some centres unmarked) [Compound 3]", "values": [
      {"measurement": "Performance relative to scopolamine", "setting": "[1]", "result": 294, "unit": "%"},
      {"measurement": "Performance relative to saline", "setting": "[1]", "result": 100, "unit": "%"},
      {"measurement": "most effective dose (the dose that increases the latency the most)", "setting": "[1]", "result": 1.4, "unit": "mg/kg"}
    ]},
    {"smiles": "CCN(C)C(=O)Oc1cccc([C@H](C)N(C)C)c1", "note": "[Rivastigmine, reference compound]", "values": [
      {"measurement": "most effective dose (the dose that increases the latency the most)", "setting": "[1]", "result": 0.25, "unit": "mg/kg"},
      {"measurement": "tolerability of the dose", "setting": "[3]", "result": "well-tolerated"}
    ]},
    {"smiles": "C[C@H](Cc1ccccc1)N(C)C(=O)Oc1cccc([C@H](C)N(C)C)c1", "note": "[Compound 7]", "values": [
      {"measurement": "Performance relative to scopolamine", "setting": "[1]", "result": 298, "unit": "%"},
      {"measurement": "Performance relative to saline", "setting": "[1]", "result": 64, "unit": "%"},
      {"measurement": "most effective dose (the dose that increases the latency the most)", "setting": "[1]", "result": 0.25, "unit": "mg/kg"},
      {"measurement": "ChE inhibition", "setting": "[3]; 2 mg/kg i.p., brain 3 hours after injection", "result": 38, "unit": "%"},
      {"measurement": "Relative ChE Activity", "setting": "[3]; 2 mg/kg i.p., brain 3 hours after injection, relative to saline treated rats", "result": 62, "unit": "%"},
      {"measurement": "tolerability of the dose", "setting": "[3]", "result": "well-tolerated"}
    ]}
  ]
}
